Test results reported in paper PMC8145572 (Viruses, 2021).
Entries after “also recorded” stand apart in the source; their conditions may differ. Read-outs that look alike come from different tables or passages of the source.

Columns and labels:
HFF-1 cells = test: WST-1 cell proliferation assay, uninfected HFF-1 cells; conditions: uninfected HFF-1 cells; for CC50: 72 h; for cytotoxicity in uninfected cells: evaluated concentrations
[1] = tested on: Dengue virus serotype 2 (DENV2), strain New Guinea C; test: Combination drug assay UV-4B and IFN, DENV-infected HUH-7 cells, plaque assay; format: cell-based; conditions: day 2, 25 µM
[2] = tested on: Dengue virus serotype 2 (DENV2), strain New Guinea C; test: Antiviral evaluation; format: cell-based; conditions: HFF-1 cells; for EC50: MOI 0.1, AUC of viral burden over 2 days; for viral burden in all treatment arms: all concentrations
SK-N-MC cells = test: WST-1 cell proliferation assay, uninfected SK-N-MC cells; conditions: uninfected SK-N-MC cells; for CC50: 72 h; for cytotoxicity in uninfected cells: evaluated concentrations
[3] = tested on: Dengue virus serotype 2 (DENV2), strain New Guinea C; test: Antiviral evaluation; format: cell-based; conditions: SK-N-MC cells; for EC50: MOI 0.1, AUC of viral burden over 4 days
[4] = tested on: DENV-infected HUH-7 cells; test: WST-1 cell viability assay, DENV-infected HUH-7 cells; format: cell-based, human; conditions: MOI 0.01, 3 days
[5] = Phase I study, one-time dose of 1000 mg; cited from earlier work
[6] = tested on: DENV-infected HFF-1 cells; test: WST-1 cell viability assay, DENV-infected HFF-1 cells; format: cell-based, human; conditions: MOI 1, 3 days
[7] = tested on: Dengue virus serotype 2 (DENV2), strain New Guinea C; test: Combination drug assay UV-4B and IFN, DENV-infected SK-N-MC cells, plaque assay; format: cell-based; conditions: 400 µM
[8] = tested on: DENV-infected SK-N-MC cells; test: WST-1 cell viability assay, DENV-infected SK-N-MC cells; format: cell-based, human; conditions: MOI 0.1, 3 days
[9] = tested on: Dengue virus serotype 2 (DENV2), strain New Guinea C; test: Antiviral evaluation; format: cell-based; conditions: for EC50: MOI 0.01, AUC of viral burden over 3 days
HUH-7 cells = test: WST-1 cell proliferation assay, uninfected HUH-7 cells; conditions: uninfected HUH-7 cells; for CC50: 72 h; for cytotoxicity in uninfected cells: evaluated concentrations
[10] = WST-1 cell proliferation assay, uninfected HFF-1 cells; conditions: human
[11] = WST-1 cell proliferation assay, uninfected SK-N-MC cells; conditions: human
[12] = WST-1 cell proliferation assay, uninfected HUH-7 cells; conditions: human

Molecule	CC50 (HFF-1 cells)	CC50 (SK-N-MC cells)	cell viability of infected cells [4]	cell viability of infected cells [6]	cell viability of infected cells [8]	EC50 ([9]; HUH-7 cells, read-out: EC50)	CC50 (HUH-7 cells)	cytotoxicity in uninfected cells (HFF-1 cells)	CC50 at 72 h [10]	EC50 ([2]; Dengue virus, DENV2, 48 h)	viral burden in all treatment arms [2]	CC50 at 72 h [11]	cytotoxicity in uninfected cells (SK-N-MC cells)	EC50 ([3]; Dengue virus, DENV2, 96 h)	cytotoxicity in uninfected cells (HUH-7 cells)	CC50 at 72 h [12]	other results
COCCCCCCCCCN1C[C@H](O)[C@@H](O)[C@H](O)[C@H]1CO.Cl [UV-4B]	> 400 µM	> 400 µM	remained comparable to the infected control; also recorded: declines in cell viability observed at UV-4B concentrations of 100 and 400 µM	moderate declines in viability observed at 100 and 400 µM	concentrations ≥ 25 µM caused dramatic increases in cell viability	23.8 µM	135 µM										reduction of viral titers, monotherapy [1]: 1.7 log10 PFU/mL; EC50 [2]: 37.4 µM; EC50 [3]: 49.4 µM; decrease in viral titers ([3]; day 2, 25 µM): 1.6 log10 PFU/mL; decrease in viral titers ([3]; day 2, 400 µM): 3.6 log10 PFU/mL; Cmax [5]: ~40 µM; decline in peak viral titers, monotherapy [7]: 3.8 log10 PFU/mL
NC(=O)c1nc(F)c[nH]c1=O [FAV, favipiravir]			limited effect on cell health	limited effect on cell health	limited effect on cell health	149 µM		no cytotoxicity	> 500 µM	> 500 µM	completely ineffective	> 500 µM	no cytotoxicity	288 µM	no cytotoxicity	> 500 µM	lowering of viral titers ([3]; Day 2, 250 µM): approximately 0.6 log10 PFU/mL; total reduction of viral titers ([3]; Day 2, 500 µM): 1.3 log10 PFU/mL; additional decrease of viral titers over 250 µM ([3]; Day 2, 500 µM versus 250 µM): 0.7 log10 PFU/mL; EC50 ([9]; Dengue virus, DENV2, Huh-7, 72 h, HUH-7 cells): 147 µM; decrease in titers relative to the control ([9]; HUH-7 cells, 250 µM): approximate tenfold decrease; maximum reduction in viral titers ([9]; HUH-7 cells, highest concentration evaluated): 1.2 log10 PFU/mL
interferon-alpha [IFN]	>10,000 IU/mL	1074 IU/mL	concentrations ≥ 10 IU/mL markedly increased cell viability	Percent cell viability stayed constant			>10,000 IU/mL										reduction of peak titers ([9]; HUH-7 cells, 100 IU/mL): 2.4 log10 PFU/mL; effect on production of infectious virus ([9]; HUH-7 cells, 10,000 IU/mL): completely curbed the production of infectious virus
CC(C)OC(=O)[C@H](C)N[P@](=O)(OC[C@H]1O[C@@H](n2ccc(=O)[nH]c2=O)[C@](C)(F)[C@@H]1O)Oc1ccccc1 [SOF, sofosbuvir]			yielded improvements in cell viability	did not change relative to the uninfected control	minimal changes in cell viability			no cytotoxicity	> 10 µM	> 10 µM	comparable to the no treatment control	> 10 µM	no cytotoxicity	> 10 µM	no cytotoxicity	> 10 µM	viral burden in all treatment arms ([3]; all concentrations): comparable to the no treatment control; EC50 ([9]; Dengue virus, DENV2, 72 h, HUH-7 cells, read-out: EC50): 6.96 µM; viral titers ([9]; HUH-7 cells, 10 µM): below the limit of detection; reduction in viral burden ([9]; HUH-7 cells, 4 and 6 µM): ~100 fold
